For experiment [1], the target named is T1, Glycogen phosphorylase, muscle form (Homo sapiens, UniProt P11217).
T1 sequence (P11217 whole entry): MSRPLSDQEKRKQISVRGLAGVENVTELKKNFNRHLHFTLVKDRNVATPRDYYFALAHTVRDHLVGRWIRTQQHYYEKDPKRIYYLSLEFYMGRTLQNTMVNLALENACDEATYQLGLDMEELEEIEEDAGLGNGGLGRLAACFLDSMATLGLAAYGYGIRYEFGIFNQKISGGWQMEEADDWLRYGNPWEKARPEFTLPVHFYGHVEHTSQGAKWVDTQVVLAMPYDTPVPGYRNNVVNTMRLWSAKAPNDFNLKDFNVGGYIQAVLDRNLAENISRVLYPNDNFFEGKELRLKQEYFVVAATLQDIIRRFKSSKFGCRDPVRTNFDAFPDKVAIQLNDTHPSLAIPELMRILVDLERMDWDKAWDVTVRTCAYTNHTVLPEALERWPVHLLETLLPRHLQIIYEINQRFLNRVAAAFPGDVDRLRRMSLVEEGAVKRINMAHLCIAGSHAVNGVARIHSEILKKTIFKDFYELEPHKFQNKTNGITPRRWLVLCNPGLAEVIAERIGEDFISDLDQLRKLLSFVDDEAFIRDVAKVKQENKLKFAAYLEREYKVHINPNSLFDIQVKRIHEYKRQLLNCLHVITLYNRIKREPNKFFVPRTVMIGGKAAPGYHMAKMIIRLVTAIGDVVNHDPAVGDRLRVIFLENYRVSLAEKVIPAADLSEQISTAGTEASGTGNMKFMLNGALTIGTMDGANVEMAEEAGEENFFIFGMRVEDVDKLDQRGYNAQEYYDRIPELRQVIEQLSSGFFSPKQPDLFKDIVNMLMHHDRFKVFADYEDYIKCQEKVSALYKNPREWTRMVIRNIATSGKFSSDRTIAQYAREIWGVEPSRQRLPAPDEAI
Nature of the experiment: Inhibitory concentration against recombinant human muscle glycogen phosphorylase a (HMGPa). Type of experiment: single protein.

Experiment [2] deals with T2, Glycogen phosphorylase, liver form (Homo sapiens, UniProt P06737).
T2 sequence (P06737 whole entry): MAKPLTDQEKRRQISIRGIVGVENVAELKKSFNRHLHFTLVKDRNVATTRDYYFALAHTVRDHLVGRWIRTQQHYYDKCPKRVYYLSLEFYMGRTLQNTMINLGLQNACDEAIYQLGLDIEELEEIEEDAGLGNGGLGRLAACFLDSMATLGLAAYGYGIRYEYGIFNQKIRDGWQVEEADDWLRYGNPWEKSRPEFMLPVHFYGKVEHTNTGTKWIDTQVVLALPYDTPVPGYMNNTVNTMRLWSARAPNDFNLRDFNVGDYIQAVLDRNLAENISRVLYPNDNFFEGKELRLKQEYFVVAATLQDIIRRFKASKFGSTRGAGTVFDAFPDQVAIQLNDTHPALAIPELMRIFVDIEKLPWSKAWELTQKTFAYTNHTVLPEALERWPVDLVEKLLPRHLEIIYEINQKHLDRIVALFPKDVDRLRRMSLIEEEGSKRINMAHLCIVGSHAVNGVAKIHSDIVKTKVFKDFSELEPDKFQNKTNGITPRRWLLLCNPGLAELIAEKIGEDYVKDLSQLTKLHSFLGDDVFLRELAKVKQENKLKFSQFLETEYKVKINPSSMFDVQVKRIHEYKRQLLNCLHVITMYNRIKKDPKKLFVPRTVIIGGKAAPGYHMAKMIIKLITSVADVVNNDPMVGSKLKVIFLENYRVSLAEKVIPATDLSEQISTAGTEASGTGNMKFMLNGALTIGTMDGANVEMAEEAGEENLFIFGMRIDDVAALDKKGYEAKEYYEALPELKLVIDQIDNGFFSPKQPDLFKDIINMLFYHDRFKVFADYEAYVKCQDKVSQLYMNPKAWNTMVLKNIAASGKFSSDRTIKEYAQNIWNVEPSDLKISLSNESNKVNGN
As to the kind of experiment: Inhibitory concentration against recombinant human liver glycogen phosphorylase a (HLGPa).

A further experiment is filed under the species Rattus norvegicus. Nature of the experiment: Inhibition of glucose production in glucagon-stimulated glycogenolysis in primary rat hepatocytes. The format is functional. The settings on record: Hepatocyte.

Structures are written as SMILES. pEC50, pIC50: −log10 of the molar value.

The pIC50 is −log10 of the IC50, conventionally taken in molar units. For `CN1C(=O)C(NC(=O)c2cc3cc(Br)ccc3[nH]2)Cc2ccccc21` (configuration not stated), the pIC50 is 7.14 in experiment [1] and 7.52 in experiment [2].
The term pEC50 denotes the negative decadic logarithm of the EC50, by convention in mol/L. A higher pEC50 goes with a small EC50. For `O=C(N[C@H]1Cc2ccccc2NC1=O)c1cc2cc(Cl)ccc2[nH]1`, the negative logarithm of the IC50 (pIC50) in experiment [1] is 7.41; in experiment [2], 7.33. In the experiment listed under Rattus norvegicus, this molecule had a pEC50 of 5.11.
Regarding `CN1C(=O)[C@H](NC(=O)c2cc3cc(Cl)ccc3[nH]2)Cc2ccccc21`, the pIC50 is 7.24 in experiment [1] and 7.21 in experiment [2]. The pEC50 in the experiment filed under Rattus norvegicus is 4.88.
As for `COC(=O)c1ccc2[nH]c(C(=O)NC3Cc4ccccc4N(C)C3=O)cc2c1` (configuration not stated), the pIC50 in experiment [1] is 5.57; in experiment [2] it was 5.28.
In the case of `CN1C(=O)C(NC(=O)c2cc3ccccc3[nH]2)Cc2ccccc21` (configuration not stated), the figures for the pIC50 in experiment [1] and in experiment [2] were 7.25 and 6.80, respectively.
As to `COc1ccc2[nH]c(C(=O)NC3Cc4ccccc4N(C)C3=O)cc2c1` (configuration not stated), the pIC50 in experiment [1] and in experiment [2] was 5.77 each time.
For `CN1C(=O)C(NC(=O)c2cc3cccc(N)c3[nH]2)Cc2ccccc21` (configuration not stated), the negative-log IC50 (pIC50) was 5.17 in experiment [1] and 5.92 in experiment [2].
`O=C(N[C@@H]1Cc2ccccc2N(Cc2ccccn2)C1=O)c1cc2cc(Cl)ccc2[nH]1`: in experiment [2], the negative-log IC50 (pIC50) is 6.92. Moreover, in the experiment listed under Rattus norvegicus, the pEC50 was 4.84.
Take `Cc1ccc2[nH]c(C(=O)NC3Cc4ccccc4N(C)C3=O)cc2c1` (configuration not stated): the figures for the pIC50 in experiment [1] and in experiment [2] were 7.01 and 6.92, respectively.
Take `CN1C(=O)C(NC(=O)c2cc3cc(F)ccc3[nH]2)Cc2ccccc21` (configuration not stated): the pIC50 was 7.05 in experiment [1] and 6.92 in experiment [2].
Consider `COC(=O)c1cc2[nH]c(C(=O)NC3Cc4ccccc4N(C)C3=O)cc2cc1Cl` (configuration not stated), for which the pIC50 in experiment [1] and in experiment [2] was under 4.70 each time.
With `CN1C(=O)C(NC(=O)c2cc3cc(-c4ccccc4)ccc3[nH]2)Cc2ccccc21` (configuration not stated), the pIC50 in experiment [1] and in experiment [2] was under 4.70 throughout.
On to `CN1C(=O)C(NC(=O)c2cc3cc(C#N)ccc3[nH]2)Cc2ccccc21` (configuration not stated), for which the pIC50 in experiment [1] was 6.96; in experiment [2], 6.74.
Turning to `O=C(N[C@H]1Cc2ccccc2N(Cc2ccccn2)C1=O)c1cc2cc(Cl)ccc2[nH]1`, the pIC50 in experiment [2] is 6.85. Moreover, the pEC50 in the experiment listed under Rattus norvegicus was 4.94.
Regarding `CCc1ccc2[nH]c(C(=O)NC3Cc4ccccc4N(C)C3=O)cc2c1` (configuration not stated), the negative logarithm of the IC50 (pIC50) was 6.07 in experiment [1] and 5.60 in experiment [2].
For `CN1C(=O)C(NC(=O)c2cc3cccc([N+](=O)[O-])c3[nH]2)Cc2ccccc21` (configuration not stated), in that order: 6.92 and 6.52.
Consider `O=C(N[C@@H]1Cc2ccccc2NC1=O)c1cc2cc(Cl)ccc2[nH]1`, for which the pIC50 in experiment [1] was 7.85; in experiment [2], 7.60. This molecule also had a pEC50 in the experiment filed under Rattus norvegicus of 5.74.
`O=C(NC1Cc2ccccc2NC1=O)c1ccc(Cl)c(Cl)c1` (configuration not stated): the pIC50 was 5.64 in experiment [1] and 5.86 in experiment [2].
Regarding `CN1C(=O)C(NC(=O)c2cc3ccc(-c4ccccc4)cc3[nH]2)Cc2ccccc21` (configuration not stated), the pIC50 in experiment [1] and in experiment [2] was under 4.70 in each case.
Take `CN1C(=O)[C@@H](NC(=O)c2cc3cc(Cl)ccc3[nH]2)Cc2ccccc21`: the pIC50 in experiment [1] and in experiment [2] was 7.24 each time. Besides, the pEC50 in the experiment filed under Rattus norvegicus was 5.08.
`CN1C(=O)C(NC(=O)c2cc3cc(C(F)(F)F)ccc3[nH]2)Cc2ccccc21` (configuration not stated): the negative logarithm of the IC50 (pIC50) in experiment [1] is 6.26; in experiment [2], 5.82.
Take `CN1C(=O)C(NC(=O)c2cc3cc(Cl)ccc3[nH]2)CCc2ccccc21` (configuration not stated): the values for the pIC50 in experiment [1] and in experiment [2] were 6.98 and 6.52, respectively.
Take `COC(=O)c1c(Cl)ccc2[nH]c(C(=O)NC3Cc4ccccc4N(C)C3=O)cc12` (configuration not stated): the negative logarithm of the IC50 (pIC50) in experiment [1] and in experiment [2] was under 4.70 each time.
Take `O=C(NC1CCc2ccccc2NC1=O)c1cc2ccccc2[nH]1` (configuration not stated): the negative logarithm of the IC50 (pIC50) in experiment [1] was 5.61; in experiment [2], 5.97.
With `CN1C(=O)C(NC(=O)c2cc3cc(Cl)cc(F)c3[nH]2)Cc2ccccc21` (configuration not stated), the figures for the pIC50 in experiment [1] and in experiment [2] were 7.26 and 7.08, respectively.
For `CN1C(=O)C(NC(=O)c2cc3c(Cl)cccc3[nH]2)Cc2ccccc21` (configuration not stated), in that order: 5.68 and 5.80.
Take `CN1C(=O)C(NC(=O)c2cc3ccc(Cl)cc3[nH]2)Cc2ccccc21` (configuration not stated): the results for the pIC50 in experiment [1] and in experiment [2] were 7.16 and 7.00, respectively.
`Cc1n[nH]c(CN2C(=O)C(NC(=O)c3cc4cc(Cl)ccc4[nH]3)Cc3ccccc32)n1` (racemic): the pIC50 in experiment [2] was 6.85. In the experiment filed under Rattus norvegicus, this molecule gave a pEC50 of 5.92.
On to `O=C(NC1Cc2ccccc2N(Cc2cccnc2)C1=O)c1cc2cc(Cl)ccc2[nH]1` (racemic), for which, in experiment [2], the pIC50 is 6.89. The molecule further showed a pEC50 in the experiment listed under Rattus norvegicus of 4.78.
For the molecule `O=C(NC1Cc2ccccc2N(Cc2ccccn2)C1=O)c1cc2cc(Cl)ccc2[nH]1` (racemic), in experiment [2], the pIC50 is 6.96. In addition, the pEC50 in the experiment listed under Rattus norvegicus was 4.68.
Regarding `O=C(NC1CCc2ccccc2NC1=O)c1ccc(Cl)c(Cl)c1` (racemic), the pIC50 was 4.66 in experiment [1] and 5.19 in experiment [2].
As for `O=C(NC1Cc2ccccc2NC1=O)c1cc2cc(Cl)ccc2[nH]1` (racemic), the negative-log IC50 (pIC50) was 7.42 in experiment [1] and 7.36 in experiment [2].
Consider `CN1C(=O)C(NC(=O)c2cc3cc(Cl)ccc3[nH]2)Cc2ccccc21` (racemic), for which the pIC50 in experiment [1] is 7.49; in experiment [2] it was 7.60.
As to `O=C(NC1Cc2ccccc2N(Cc2nnc(-c3ncc[nH]3)[nH]2)C1=O)c1cc2cc(Cl)ccc2[nH]1` (racemic), in experiment [2], the pIC50 was 6.80. For the same molecule, in the experiment listed under Rattus norvegicus, the pEC50 is 5.43.
